{"source": "paper PMC9807860", "about": "(Current Research in Food Science, 2022)", "key": {"tyrosinase [1]": {"target": "T1, tyrosinase (Agaricus bisporus, UniProt C7FF04)", "type": "biochemical, mushroom"}, "tyrosinase [2]": {"target": "T1, tyrosinase", "conditions": "Lineweaver-Burk plots; Vmax decreased, Km unchanged"}, "tyrosinase [3]": {"target": "T1, tyrosinase", "test": "Fluorescence spectrum quenching of tyrosinase", "type": "binding, mushroom"}, "Cell viability assay": {"test": "Cell viability assay", "type": "cell-based", "conditions": "human, HEK-293 cells"}, "tyrosinase [4]": {"target": "T1, tyrosinase", "test": "ANS-binding fluorescence spectrum quenching", "parameters": "species or system mushroom", "conditions": "6j 0–59.41 μM"}, "fresh-cut apple slices": {"tested_on": "fresh-cut apple slices", "test": "Anti-browning experiment with fresh-cut apple slices", "conditions": "apple slices dipped 5 min, stored at 4 °C; compared with kojic acid"}, "[5]": {"conditions": "plot of Lg[(F0−F)/F] against Lg[Q]"}}, "note": "Entries after “also recorded” stand apart in the source; their conditions may differ."}
{"smiles": "COc1cc(C=O)cc(OC)c1OCc1cc(=O)c(O)co1", "note": "[6c]", "values": [{"measurement": "Inhibitory activity against tyrosinase (in words)", "setting": "tyrosinase [1]", "value": "relatively lower inhibitory activity"}]}
{"smiles": "COc1cccc(C=O)c1OCc1cc(=O)c(O)co1", "note": "[6g]", "values": [{"measurement": "Inhibitory activity against tyrosinase (in words)", "setting": "tyrosinase [1]", "value": "relatively lower inhibitory activity"}]}
{"smiles": "Cc1cc(C=O)cc(C)c1OCc1cc(=O)c(O)co1", "note": "[6h]", "values": [{"measurement": "Inhibitory activity against tyrosinase (in words)", "setting": "tyrosinase [1]", "value": "relatively lower inhibitory activity"}]}
{"smiles": "CCOc1cccc(C=O)c1OCc1cc(=O)c(O)co1", "note": "[6i]", "values": [{"measurement": "Inhibitory activity against tyrosinase (in words)", "setting": "tyrosinase [1]", "value": "relatively lower inhibitory activity"}]}
{"smiles": "O=Cc1ccc(OCc2cc(=O)c(O)co2)cc1F", "note": "[6j]", "values": [{"measurement": "Inhibition type", "setting": "tyrosinase [2]", "value": "noncompetitive inhibitor"}, {"measurement": "Anti-tyrosinase activity relative to the positive control kojic acid", "setting": "tyrosinase [1]; ratio of IC50 values", "value": "nine folds more active"}, {"measurement": "Type of quenching", "setting": "tyrosinase [3]; Stern-Volmer analysis", "value": "static quenching"}, {"measurement": "Ksv (Stern-Volmer quenching constant)", "setting": "tyrosinase [3]; excitation 280 nm, 6j 4.99–24.79 μM", "value": 7040, "unit": "M⁻¹"}, {"measurement": "Ka (binding constant)", "setting": "tyrosinase [3]; [5]", "value": 28900, "unit": "M⁻¹"}, {"measurement": "n (binding sites)", "setting": "tyrosinase [3]; [5]", "value": 1.24}, {"measurement": "Kq (biomolecular quenching constant)", "setting": "tyrosinase [3]; τ0 10^−8 s", "value": "7.04e+11", "unit": "M⁻¹ s⁻¹"}, {"measurement": "viability at 24 h, 1 µM", "setting": "Cell viability assay", "value": "97.1 ± 2.49", "unit": "%"}, {"measurement": "viability at 24 h, 4 µM", "setting": "Cell viability assay", "value": "106 ± 8.83", "unit": "%"}, {"measurement": "viability at 24 h, 16 µM", "setting": "Cell viability assay", "value": "102 ± 10.1", "unit": "%"}, {"measurement": "viability at 24 h, 64 µM", "setting": "Cell viability assay", "value": "105 ± 7.27", "unit": "%"}, {"measurement": "viability at 24 h, 256 µM", "setting": "Cell viability assay", "value": "88.6 ± 3.61", "unit": "%"}, {"measurement": "ANS-binding fluorescence: maximum emission peak wavelength and intensity", "setting": "tyrosinase [4]", "value": "did not present an obvious change"}, {"measurement": "Anti-browning effect (L*, ΔE, visual assessment)", "setting": "fresh-cut apple slices", "value": "could delay the enzymatic browning of fresh-cut apples; also recorded: stronger anti-browning effect than kojic acid"}]}
{"smiles": "COc1cc(C=O)cc(Br)c1OCc1cc(=O)c(O)co1", "note": "[6k]", "values": [{"measurement": "Inhibitory activity against tyrosinase (in words)", "setting": "tyrosinase [1]", "value": "relatively lower inhibitory activity"}]}
